Laboratory results taken from US9534221B2, “Targeting the steroidogenic pathway for treating and/or preventing allergic diseases” (National Jewish Health, priority 2013, dated 2017).
Where “and” joins values, the source holds several entries; their conditions need not be identical. Identical values can stand only once.

Legend:
CD8+ T cells = assay: Flow cytometric intracellular staining of IFN-γ and IL-13 in CD8+ T cells; type: cell-based, mouse
Protocol: CD8^+ effector memory T cells were generated in vitro as previously described (Miyahara, N. et al. J. Immunol. 172, 2549-2558 (2004); Miyahara, N. et al. J. Immunol. 174, 4979-4984 (2005)). In brief, mononuclear cells (MNCs) were processed from the spleens of OT-1 mice followed by stimulation of 1 μg/ml SIINFEKL peptide (SEQ ID NO:1) was used to stimulate cells for 1.5 hours. Two days after culture, living cells were re-isolated using histopaque and cultured in complete RPMI 1640 medium that contained recombinant mouse IL-2 (20 ng/ml) (R&D, Minneapolis, Minn.) or IL-2+IL-4 (20 ng/ml) (Peprotech, Rocky Hill, N.J.). For some experiments, AMG was added into the medium together with IL-2 or IL-2+IL-4. Medium with cytokines was changed every day for a further 4 days. The cells were then re-stimulated with 1 μg/ml SIINFEKL (SEQ ID NO:1) in medium containing 2 μM monensin (Calbiochem, La Jolla, Calif.) for 4 hours. […]
For intracellular staining, 1×10^6/ml cells were washed twice with PBS containing 1% BSA, stimulated with 1 μg/ml SIINFEKL in the presence of 2 μM monensin at 37° C. for 4 hours. After fixation with 4% paraformaldehyde (Electron Microscopy Sciences, Hatfield, Pa.) and permeabilization with 0.1% saponin (Sigma, St. Louis, Mo.), cells were washed twice with PBS containing 1% BSA, then incubated with anti-mouse CD16/CD32 (2.4G2) (BD Bioscience, San Jose, Calif.) at 4° C. for 5 minutes, then stained with FITC labeled anti-mouse IFN-γ (XMG 1.2) (eBioscience, San Diego, Calif.) or PerCP-Cy5.5 labeled anti-mouse […] (XMG 1.2) (eBioscience) and PE-labeled anti-mouse IL-13 (eBio13A) (eBioscience). For some experiments, fixed cells were stained with biotin labeled rabbit anti-Cyp11a1/p450 cc polyclonal antibody (Bioss, Woburn, Mass.) followed by PE-Cy5 labeled streptavidin (PE-Cy5-SAv) (eBioscience). Cell staining was monitored on a FACSCalibur (BD Bioscience) and analyzed using Flowjo software (Tree Star, Inc, Ashland, Oreg.).

CD4 T cells = assay: Th1, Th2, Th17 differentiation of naive CD4 T cells in vitro; type: cell-based, mouse
Protocol: Levels of IL-4, IL-13, IL-17A, and IFN-γ in cell culture supernatants were measured by ELISA (eBioscience, San Diego, Calif.) as described by the manufacturer. Pregnenolone levels in serum and cell culture supernatants were measured by ELISA (ALPCO Diagnostics, Salem, N.H.), as described by the manufacturer. Differentiation of Th1, Th2, or Th17 cells was performed as previously described with minor changes (Ashino, S., et al. Intl. Immunol. 22:503-513 (2010)). CD4^+CD45RB^+ T cells were isolated from naive TCR-transgenic mice (OT II mice) spleen using a cell sorter (MoFlo XDP, Beckman Coulter). In the presence of mitomycin-C-treated spleen cells, 5 μg/ml OVA323-339 peptide, and the inhibitor AMG ([…]), isolated naive CD4 T cells were cultured with rmIL-2 (10 ng/ml, R/D Systems), rmIL-12 (10 ng/ml, Peprotech), rmIFN-γ (5 ng/ml, Peprotech), and anti-IL-4 mAbs (10 μg/ml, eBioscience) to induce Th1 cell differentiation; with rmIL-2 (10 ng/ml, R/D Systems), rmIL-4 (5 ng/ml, Peprotech), and anti-IFN-γ mAb (10 μg/ml, eBioscience) for differentiation of Th2 cells; and […], Peprotech), anti-IL-4 mAb (10 μg/ml, eBioscience), and anti-IFN-γ mAb (10 μg/ml, eBioscience) for differentiation of Th17 cells. After 6 days of culture, the cells were washed with fresh medium and restimulated with anti-CD3/anti-CD28 for 24 hrs for assay of cytokine production. The cells were collected for quantitative RT-PCR and Western blot. In some experiments (for transduction experiment), the cells were cultured under Th1, Th2, and Th17 polarizing conditions for 5 days as described in Methods. Cultured cells were lysed as previously described (Ohnishi, H., et al. J. Allergy Clin. Immunol. 121:864-871 (2008)). Lysates were resolved by means of SDS-PAGE and transferred to nitrocellulose membranes. Proteins were detected using antibodies specific for Cyp11a1 (LifeSpan Biosciences. Seattle, Wash.) followed by chemiluminescence detection (GE Healthcare, Little Chalfont, UK). RNA was extracted from jejunal tissue homogenates or from CD4 T cells cultured in vitro using Trizol (Invitrogen). cDNA was generated using the iScript cDNA synthesis kit (Bio-Rad Laboratories, Hercules, Calif.). Quantitative real-time PCR was performed on the ABI Prism 7300 sequence detection system (Applied Biosystems, Foster City, Calif.). All primers and probes used were purchased as Tagman Gene Expression Assays from Applied Biosystems. Fold change was calculated using the Delta Delta cycle threshold (ΔΔCT) method.

[1] = IL-2+AMG (500 μM)+SIINFEKL 1 μg/ml
[2] = IL-2+IL-4+AMG (500 μM), no SIINFEKL
[3] = SIINFEKL and IL-2+IL-4, different concentrations of AMG
[4] = polarized Th1, Th2 or Th17 cells, AMG 400 μM

## CCC1(c2ccc(N)cc2)CCC(=O)NC1=O (stereo not shown) [AMG, aminoglutethimide]
CD8+ T cells; AMG in culture
  Overall suppressive or toxic effect on CD8+ T cell cultures: did not have an overall suppressive or toxic effect
CD8+ T cells; [1]
  IFN-γ single positive cells: 78.3 +/− 8.3%
  IFN-γ+IL13+ double positive cells: 9.0 +/− 2.7%
  IL-13 single positive cells: 0.1 +/− 0.1%
CD8+ T cells; IL-2+IL-4+AMG (500 μM)+SIINFEKL, without AMG 8.8±2.3%
  IFN-γ+IL13+ double positive cells: 14.7±5.5% and 14.7 +/− 5.5%
CD8+ T cells; IL-2+IL-4+AMG (500 μM)+SIINFEKL, without AMG 14.5±5.8%
  IFN-γ single positive cells: 42.4±11.5%
CD8+ T cells; IL-2+IL-4+AMG (500 μM)+SIINFEKL, without AMG 35.7±8.2%
  IL-13 single positive cells: 14.7±8.9%
CD8+ T cells; [2]
  IFN-γ single positive cells: 0.9 +/− 0.5%
  IL-13 single positive cells: 2.3 +/− 1.5%
CD8+ T cells; [3]
  IFN-γ-positive cells, dose dependence: increase in IFN-γ-positive cells
  Percentage of IL-13-positive cells, dose dependence: dramatic dose-dependent decrease in the percentage of IL-13-positive cells
CD8+ T cells; initial studies
  Duration of the effects of AMG on CD8+ T cell conversion before the cells recovered: up to forty-eight hours
CD4 T cells; Th1 cells
  IFNG mRNA expression: no significant effects
CD4 T cells; Th2 cells, AMG 400 μM
  Pregnenolone levels in culture supernates: significantly decreased
CD4 T cells; Th17 cells, AMG 400 μM
  Pregnenolone levels in culture supernates: the decreases did not reach statistical significance
CD4 T cells; [4]
  Cyp11a1 mRNA expression levels: did not suppress
  Cyp11a1 protein expression levels: did not suppress
CD4 T cells; polarized Th1 cell cultures
  IFN-γ levels in culture supernatants: not affected
CD4 T cells; polarized Th1 cells, 400 μM
  T-bet mRNA expression: did not have any effect
CD4 T cells; polarized Th2 cell cultures
  IL-13 levels in culture supernatants: decreased
CD4 T cells; polarized Th2 cells
  IL13 mRNA: decreased
CD4 T cells; polarized Th2 cells, 400 μM
  GATA3 mRNA expression: did not have any effect
CD4 T cells; polarized Th17 cell cultures
  IL-17A levels in culture supernatants: decreased
CD4 T cells; polarized Th17 cells
  IL17A mRNA: decreased
CD4 T cells; polarized Th17 cells, 400 μM
  RORγt mRNA expression: did not have any effect
